The test deals with Candida paratropicalis. Put plainly: MBEC assay (biofilm inhibition). To be noted: biofilm grown 24 hours at 37±2°C on pegs, logR = log reduction; for log reduction at 100 µM: test compound 100 µm (so in the source); for log reduction at 10 µM: test compound 10 µM. Type of test: cell-based. On the procedure: TEST METHOD: MBEC™ Assay The compound to be tested was dissolved in DMSO to obtain a concentration that was 100 times that of the final concentration required (1mM for the 10µM assay and 10mM for the 100µM assay). 1.5 µL of the above solution was placed into each well of a 96 well plate (final volume in each well = 150 µL, final DMSO concentration of 1% (v/v)). To grow the organism and form a biofilm, a cryogenic stock of Candida paratropicalis (at - 70°C) was used. A first sub-culture was streaked out onto TSA (tryptic soy agar), upon which the plate was incubated at 37±2°C for 24 hours and stored wrapped in parafilm at 4 °C afterwards. From this first sub-culture, a second sub-culture was streaked out onto TSA. The plate was incubated at 37±2°C for 24 hours. The second sub-culture was used within 24 hours starting from the time it was first removed from incubation. Using the second sub-culture an inoculum in 3 mL sterile water that matches a 0.5 McFarland Standard (1.5 x 10^8 cells per mL) was created in a glass test tube using a sterile cotton swab. […] of this solution was diluted in 22mL TSB (tryptic soy broth) medium to a cell density of approximately 6.0 x 10^5 cells per mL. The diluted organism was inverted 3-5 times to achieve uniform mixing of the organism. One sample (100µl) of the diluted organism was used for an inoculum check by serially diluting and spot plating on TSA. To prepare a challenge plate, 20 µl of the diluted organism was added to each well of a 96 well plate except the sterility control wells. The test compounds were added to the wells to make up final concentrations of 10 µM and 100 µM (1.5 µL /well) in the designated location in the test plate. 128.5 µL of TSB was placed in each of the wells. 130 µL of media was added to the growth control wells. 128.5 µL of media+ 1.5 µL of DMSO were added to a second set of growth control wells. 150 µL of media was added to the sterility controls. Each sample was run in triplicate. The plate was covered by a lid with a peg per well and wrapped in parafilm and placed on a shaker in a humidified incubator (GeneVac) at 37±2°C for 24 hours set at 110 rpm. Rinse plate(s) of 0.9% saline (200 µL per well) were prepared in a sterile 96 well microtitre plate. Lid-associated pegs were rinsed in 0.9% saline for approximately 1-2 minutes. The peg lid was transferred to the recovery media (1.0% Tween 80 in CAMHB) then sonicated for 30 minutes to dislodge surviving biofilm. Following sonication, 100 µl from each well of the 96 well plate was placed into the first 12 wells of the first row of a 96 well microtiter plate. 180 µl of 0.9% sterile saline was placed in the remaining rows. A serial dilution (10^0-10^-7) was prepared by moving 20 µl down each of the 8 rows. 20µl from each well was removed and spot plated on a prepared TSA. In the remaining recovery plate, 100 µl of fresh growth media (1.0% Tween 80 in CAMHB) was placed in each well to replace the amount removed. The recovery plate was covered with a regular lid and incubated at 37±2°C for 24 hours and read visually to confirm antimicrobial activity of the test compounds. The following compounds have been tested regarding their efficiency (logR = log reduction) against Candida paratropicalis: […]

Consider `CCCCCCCCCC(=O)CC(=O)N1CCC(N(C)C)C1` (centres unmarked) [Example 6], for which the log reduction at 100 µM amounted to 3.87. As for `CCCCCCCCCC(=O)CC(=O)Nc1ccno1` [Example 3], the log reduction at 10 µM was found to be 1.26 and the log reduction at 100 µM was 1.1. The molecule `CCCCCCCCCC(=O)CC(=O)Nc1nc(C)co1` [Example 4] registered a log reduction at 100 µM of 1.71. For `CCCCCCCCCC(=O)CC(=O)N1CCN(C)CC1` [Example 5], the log reduction at 100 µM amounted to 2.83. In turn, `CCCCCCC(=O)CC(=O)Nc1ccno1` [Example 2] came in with a log reduction at 10 µM of 1.12 and a log reduction at 100 µM of 0.65. With `CCCCCCCCCC(=O)CC(=O)N(C)c1ccc(F)cc1` [Example 1], the log reduction at 100 µM stood at 0.62.
